This assay concerns the target sirtuin 2 (SIRT2) (Homo sapiens, UniProt Q8IXJ6). As to the kind of experiment: trypsin-coupled fluorescence-based deacetylase assay. Format: biochemical.

Chain of sirtuin 2 (SIRT2) (Q8IXJ6 2-389): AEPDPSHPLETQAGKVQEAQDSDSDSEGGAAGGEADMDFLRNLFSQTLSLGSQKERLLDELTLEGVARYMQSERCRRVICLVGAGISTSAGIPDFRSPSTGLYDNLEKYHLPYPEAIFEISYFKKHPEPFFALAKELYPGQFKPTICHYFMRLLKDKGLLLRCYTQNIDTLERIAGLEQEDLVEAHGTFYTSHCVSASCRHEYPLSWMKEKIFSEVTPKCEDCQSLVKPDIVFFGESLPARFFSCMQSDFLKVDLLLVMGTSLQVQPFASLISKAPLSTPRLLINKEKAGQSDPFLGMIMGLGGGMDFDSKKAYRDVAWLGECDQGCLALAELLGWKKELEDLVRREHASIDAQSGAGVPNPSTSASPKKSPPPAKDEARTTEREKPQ

On to `NC(=O)c1ccc[n+]([C@@H]2O[C@H](COP(=O)([O-])OP(=O)(O)OC[C@H]3O[C@@H](n4cnc5c(N)ncnc54)[C@H](O)[C@@H]3O)[C@@H](O)[C@H]2O)c1` [NAD^+], for which the “trypsin-coupled fluorescence-based deacetylase assay” value is “in contrast to NAD^+ that could participate in SIRT2-catalyzed protein deacetylation”.

The values above are taken from publication PMC6256357 (Chemical Science, 2018).
